From ChEMBL document CHEMBL3763101, “Gibbilimbol analogues as antiparasitic agents--Synthesis and biological activity against Trypanosoma cruzi and Leishmania (L.) infantum” (Bioorg Med Chem Lett, 2016)

Experiments:
[1] = Selectivity index, ratio of CC50 for mouse […] cells to IC50 for Trypanosoma cruzi Y trypomastigotes; format: functional
Trypanosoma cruzi [2] = assay: Antiparasitic activity against amastigote stage of Trypanosoma cruzi Y; format: functional, organism-based
Leishmania infantum [3] = assay: Antiparasitic activity against amastigote stage of Leishmania infantum infected in BALB/c mouse peritoneal macrophages assessed as reduction of parasite burden after 120 hrs by Giemsa staining-based light microscopic analysis; format: functional, organism-based
[4] = Selectivity index, ratio of CC50 for mouse […] cells to IC50 for Leishmania infantum promastigotes; format: functional, NCTC-929
Trypanosoma cruzi [5] = assay: Antiparasitic activity against trypomastigote stage of Trypanosoma cruzi Y assessed as parasite viability after 24 hrs by MTT assay; format: functional, organism-based
Leishmania infantum [6] = assay: Antiparasitic activity against promastigote stage of Leishmania infantum assessed as parasite viability after 24 hrs by MTT assay; format: functional, organism-based
[7] = Cytotoxicity against mouse NCTC-929 cells assessed as cell viability after 48 hrs by MTT assay; format: cell-based
[8] = Selectivity index, ratio of CC50 for mouse […] cells to IC50 for Trypanosoma cruzi Y amastigotes; format: functional
[9] = Selectivity index, ratio of CC50 for mouse […] cells to IC50 for Leishmania infantum amastigotes; format: functional
Leishmania infantum [10] = assay: Potency index, ratio of gibbilimbol B IC50 to compound IC50 for amastigote stage of Leishmania infantum infected in BALB/c mouse peritoneal macrophages; format: functional
[11] = Trypanosoma cruzi, Y, 24 h, read-out: IC50
[12] = Leishmania infantum, 24 h, read-out: IC50
[13] = Trypanosoma cruzi, Y, read-out: IC50
[14] = Leishmania infantum, 120 h, read-out: IC50

For `CCCCCCCCOC(=O)c1ccc(O)cc1`, the “Ratio CC50/IC50” value [1] was 29, the IC50 (Trypanosoma cruzi [2]) was “Not Active” and the IC50 (Leishmania infantum [3]) was “Not Active”. The “Ratio CC50/IC50” value [4] was 1.1, the IC50 (Trypanosoma cruzi [5]; [11]) was 4.5 µM and the IC50 (Leishmania infantum [6]; [12]) was 123 µM. The CC50 at 48 h [7] was 130 µM.
In the case of `CCCCCCCC/N=C/c1ccc(O)cc1`, the IC50 (Trypanosoma cruzi [2]) is reported as “Not Active”, the IC50 (Leishmania infantum [3]) is reported as “Not Active” and the “Ratio CC50/IC50” value [4] is reported as 5. The IC50 (Trypanosoma cruzi [5]) was “Not Active”, the IC50 (Leishmania infantum [6]; [12]) was 19.9 µM and the CC50 at 48 h [7] was 99.2 µM.
In the case of `CCCCCCCC(O)/C=C/c1ccc(O)cc1` (centres undefined), the “Ratio CC50/IC50” value [1] is reported as 8.1, the IC50 (Trypanosoma cruzi [2]) is reported as “Not Active” and the IC50 (Leishmania infantum [3]) is reported as “Not Active”. For the same molecule, the “Ratio CC50/IC50” value [4] was 0.4, the IC50 (Trypanosoma cruzi [5]; [11]) was 6.1 µM and the IC50 (Leishmania infantum [6]; [12]) was 125 µM. The CC50 at 48 h [7] was 49.5 µM.
For `CCCCCCCCNC(=O)c1ccc(O)cc1`, the “Ratio CC50/IC50” value [1] was 1.7, the IC50 (Trypanosoma cruzi [2]) was “Not Active” and the IC50 (Leishmania infantum [3]) was “Not Active”. The “Ratio CC50/IC50” value [4] was 1, the IC50 (Trypanosoma cruzi [5]; [11]) was 26.5 µM and the IC50 (Leishmania infantum [6]; [12]) was 45.1 µM. The CC50 at 48 h [7] was 45.4 µM.
In the case of `CCCCCCCC(=O)/C=C/c1ccc(O)cc1`, the “Ratio CC50/IC50” value [1] is reported as 7, the IC50 (Trypanosoma cruzi [2]; [13]) is reported as 22.5 µM and the IC50 (Leishmania infantum [3]) is reported as “Not Active”. For the same molecule, the “Ratio CC50/IC50” value [8] was 3.7, the “Ratio CC50/IC50” value [4] was 1 and the IC50 (Trypanosoma cruzi [5]; [11]) was 11.8 µM. The IC50 (Leishmania infantum [6]; [12]) was 82.7 µM and the CC50 at 48 h [7] was 82.8 µM.
With `CCCCCCCCNCc1ccc(O)cc1` the “Ratio CC50/IC50” value [1] was 1.4, the “Ratio CC50/IC50” value [9] was 13.1 and the IC50 (Trypanosoma cruzi [2]; [13]) was 5.5 µM. The IC50 (Leishmania infantum [3]; [14]) was 1.8 µM, the “Ratio CC50/IC50” value [8] was 4.3 and the “Ratio IC50” value (Leishmania infantum [10]) was 52. The “Ratio CC50/IC50” value [4] was 0.8, the IC50 (Trypanosoma cruzi [5]; [11]) was 17 µM and the IC50 (Leishmania infantum [6]; [12]) was 28.6 µM. For the same molecule, the CC50 at 48 h [7] was 23.5 µM.
For `CCCCNCc1ccc(O)cc1`, the IC50 (Trypanosoma cruzi [2]) was “Not Active”, the IC50 (Leishmania infantum [3]) was “Not Active” and the “Ratio CC50/IC50” value [4] was over 9.5. For the same molecule, the IC50 (Trypanosoma cruzi [5]) was “Not Active”, the IC50 (Leishmania infantum [6]; [12]) was 31.6 µM and the CC50 at 48 h [7] was over 300 µM.
Molecule `O=C(Cn1ccnc1[N+](=O)[O-])NCc1ccccc1` [BENZNIDAZOLE] has an IC50 (Trypanosoma cruzi [2]; [13]) of 230 µM and a CC50 at 48 h [7] of 270 µM.
For `CCCCOC(=O)c1ccc(O)cc1` [BUTYLPARABEN], the IC50 (Trypanosoma cruzi [2]; [13]) was 26.4 µM, the IC50 (Leishmania infantum [3]) was “Not Active” and the “Ratio CC50/IC50” value [8] was 6.4. For the same molecule, the IC50 (Trypanosoma cruzi [5]) was “Not Active”, the IC50 (Leishmania infantum [6]) was “Not Active” and the CC50 at 48 h [7] was 168 µM.
For `CCCCCCCCCCCCCCCCOP(=O)([O-])OCC[N+](C)(C)C` [MILTEFOSINE], the “Ratio CC50/IC50” value [9] was 14.7, the IC50 (Leishmania infantum [3]; [14]) was 16.4 µM and the “Ratio CC50/IC50” value [4] was 14.5. For the same molecule, the IC50 (Leishmania infantum [6]; [12]) was 16.7 µM and the CC50 at 48 h [7] was 241 µM.
